We go through three molecules from US11541037B2, “Alkaloids from sponge, scaffolds for the inhibition of human immunodeficiency virus (HIV)” (King Abdullah University of Science and Technology, priority 2014, dated 2023).

One series relates to LC5-RIC cells. Put plainly: MTT cell proliferation (vitality) assay of infected LC5-RIC cells. It is filed as cell-based. The settings on record: for concentrations at which cytotoxicity was observed / cytotoxicity (in words): LC5-RIC cells; for cytotoxicity (in words): tested concentrations 3.1-50 μM. The procedure: The colorimetric assay […] was used in order to assess the viability and activity of LC5-RIC cells exposed to the unknown sponge mixtures, SPE fraction 1 and HPLC fractions 1-11, for three biological replicates. This cell vitality assay provides a visualization of the process where mitochondrial enzymes reduce the yellow MTT to purple formazan (ATCC, MTT cell proliferation assay). After reading the HIV reporter expression, cultures were incubated with 100 μl of MTT solution (0.5 mg of […]; Sigma, Taufkirchen, Germany) in 100 μl of culture medium for 2 hours. MTT solution was removed and 100 μl of lysis solution (10% [wt/vol] SDS and 0.6% [vol/vol] acetic acid in dimethyl sulfoxide [DMSO]) was added. The formazan concentrations of the test compounds and the uninfected control cultures were determined by an ELISA plate reader (Tecan Infinite M200, Tecan Germany GmbH, Crailsheim) and scanned with a test wavelength of 570 nm and a reference wavelength of 630 nm.

Series [1] concerns the target T1, HIV-1 reverse transcriptase (Human immunodeficiency virus type 1 group M subtype B, UniProt P04585).
T1 construct: The reverse transcriptase is a heterodimer with the p66 and the p51 subunits; purchased Calbiochem, Merck-Millipore
Put plainly: HIV-1 reverse transcriptase biochemical assay (EnzChek). The settings on record: for anti-HIV-1 RT activity (in words): screened at 3.1-100 μM. The procedure:
The HIV-1 reverse transcriptase inhibition assay was carried out using the commercial kit EnzChek® Reverse Transcriptase Assay (Invitrogen, San Jose, Calif., USA). The reverse transcriptase is a heterodimer with the p66 and the p51 subunits with RNase H activity located in the last 15 KDa of the p66 HIV Reverse transcriptase (Calbiochem, Merck-Millipore). Polymerase activity was assessed by its ability to produce RNA-DNA heteroduplexes from a mixture of a long poly (A) template, an oligo dT primer and dTTP which is then detected by PicoGreen® dsDNA quantitation reagent. The single compound and controls were performed in triplicated in a 384-well plate format, each with a total reaction mixture of 50 μL. To begin, the poly (A) template was annealed to the oligo dT primer for one hour, then diluted 200 fold in polymerization buffer. Reverse transcriptase (1.2 μl) was added per 300 reactions. This mixture was kept on ice and aliquoted to each well with test compounds. The reaction was incubated at room temperature for one hour and then 2 μl of […] EDTA was added to stop the reaction. The RNA-DNA heteroduplex was labeled with PicoGreen and incubated for 5 minutes and then detected with the use of a SpectraMax® Paradigm® Multi-mode Microplate Detection Platform (Molecular Devices, Sunnyvale, Calif., USA) by scanning at 480 nm excitation wavelength and 520 nm emission wavelength. […] Statistical significances were determined using a one-way ANOVA.

In series [2] the test system is HIV-1.
Method: (§1) The EASY-HIT assay (Kremb et al. [11]) is based on HIV-1 susceptible reporter cells (LC5-RIC) that contain a stably integrated fluorescent reporter gene that is activated upon successful HIV-1 infection and expression of the early viral proteins Rev and Tat. LC5-RIC were seeded into 96-well plates (μCLEAR-Plate Black; Greiner Bio-One, Kremsmuenster, Germany) using only the 60 inner wells to avoid variations in the culture conditions in the outer wells. Cells were seeded ata density of 10,000 cells per well 24 hours prior to infection. SPE fractions for the biological replicates C26, C14 and D5, were tested in a serial 1:2-dilution with a maximum of 3% methanol or approximately 75 μg/ml for the S. carteri fraction 1 mixture on the EASY-HIT assay [11]. For the HPLC fractions, SPE fraction 1 HPLC fractions 1-11, were tested on the EASY-HIT assay for biological replicates C26, C14 and D5. The authentic samples of HD, DBH, and oroidin were screened at 3.1 μM, 6.25 μM, 12.5 μM, 25 μM, and 50 μM. All samples were tested in triplicates. After compound addition, LC5-RIC cells were infected by adding 20 μl of HIV-1 inoculum (approx. 28.8 ng of p24 for HIV-1LAI derived from HEK 293T cells) to each well of the plate. Cells were incubated at standard cell culture conditions for 48 hours after infection and were subsequently assayed for reporter expression and cell viability.
(§2) Reporter expression was determined by measuring the total fluorescent signal intensity of each culture with a fluorescence microplate reader (Fluoroskan Ascent; ThermoFisher, Schwerte, Germany) at an excitation filter wavelength of 544 nm and an emission filter wavelength of 590 nm or with a Tecan infinite M200 (Tecan, Crailsheim, Germany) at the monochromator wavelengths 552 nm for excitation and 596 for emission. Statistical significances were determined using one-way ANOVA.
The conditions of series [3]: vendor data, Enzo Life Sciences, cited from earlier work.
The test system of series [4] is HIV-1. The series can be described thus: microbe, parasite or virus in culture. The settings on record: Human immunodeficiency virus 1, read-out: concentration giving 50% inhibition of HIV-1 (viral replication).
Method: as §1, §2
A further series deals with HIV. The settings on record: concentrations not detailed; cited from earlier work.

≈ marks a conversion by molar mass, not a printed value. Entries after “also recorded” stand apart in the source; their conditions may differ. Like-named read-outs stand apart in the source and are kept apart here.

Take `NC1=NC(=O)/C(=C2\CCNC(=O)c3[nH]ccc32)N1` [DBH, 4-(2-Amino-4-oxo-2-imidazolin-5-ylidene)-4,5,6,7-tetrahydropyrrolo[2,3-c]azepin-8-one]: the “effect on cell vitality” value in the series with LC5-RIC cells (13 μM) is recorded as “without affecting cell vitality”. Further, in the series with LC5-RIC cells, the “concentrations at which cytotoxicity was observed” value is recorded as “greater than 13 μM” and the “cytotoxicity (in words)” value is recorded as “exhibited cytotoxicity”. The “anti-HIV-1 RT activity (in words)” value in series [1] was “did not show anti-HIV-1 RT activity; also recorded: do not affect this enzyme”. The “HIV-1 infection, % of untreated controls” value with HIV-1 [2] (13 μM) is 30%. Besides, the “solubility (in words)” value in series [3] was “Soluble in 100% ethanol or DMSO”. Moreover, the IC50 in the series on HIV-1 [4] was 7 µM.

`NC1=NC(=O)/C(=C2\CCNC(=O)c3[nH]c(Br)cc32)N1` [HD, 10Z-Hymenialdisine]: the “effect on cell vitality” value with LC5-RIC cells (3.1 μM) is recorded as “without affecting cell vitality”. Besides, in the series with LC5-RIC cells, the “concentrations at which cytotoxicity was observed” value is “greater than 3.1 μM” and the “cytotoxicity (in words)” value is on record as “exhibited cytotoxicity”. Further, the “anti-HIV-1 RT activity (in words)” value in series [1] is recorded as “did not show anti-HIV-1 RT activity; also recorded: do not affect this enzyme”. For the same molecule, the “HIV infection, % of untreated controls” value in the series on HIV-1 [2] (3.1 μM) is given as < 40%. In the series on HIV-1 [2] (EASY-HIT, LC5-RIC cells), the “inhibition of HIV-1 replication (in words)” value is “capable of inhibiting HIV-1 replication”. Also, in series [3] (DMSO), the “solubility in DMSO” value was 5000 µg/mL (≈ 15.4 mM). Further, the IC50 in the series with HIV-1 [4] is 13 µM.

Take `Nc1ncc(/C=C/CNC(=O)c2cc(Br)c(Br)[nH]2)[nH]1` [oroidin]: the figures for the “cytotoxicity (in words)” value with LC5-RIC cells and in the series on LC5-RIC cells (listed as Oroidin) were “non-cytotoxic at all tested concentrations; also recorded: without causing cytotoxicity; also recorded: no associated toxicity” and “nontoxic for cells at all tested concentrations”, respectively. Further, in series [1] (25 μM), the “inhibition of HIV-1 reverse transcriptase activity” value was “up to 90%”. The “inhibition of the HIV-1 RT enzyme” value in series [1] (concentrations greater than 25 μM) is 90%. Moreover, the “anti-HIV-1 RT activity (in words)” value in series [1] was “directly acting to inhibit the retroviral reverse transcriptase”. In addition, the “HIV-1 infection, % of untreated controls” value with HIV-1 [2] (50 μM) is listed as 50%. Moreover, the “reduction of HIV-1 replication” value with HIV-1 [2] (50 μM) is given as “up to 50%”. Besides, the “inhibition of HIV-1 replication (in words)” value with HIV-1 [2] (EASY-HIT, LC5-RIC cells) is “capable of inhibiting HIV-1 replication”; in the series with HIV-1 [2] (EASY-HIT, LC5-RIC cells, listed as Oroidin), “weakest antiviral activity”. Besides, in the series on HIV-1 [2] (read-out: concentration giving 50% inhibition of HIV-1 (viral replication), EASY-HIT, LC5-RIC cells, purchased pure compounds), the IC50 stood at 50 µM. Also, in the series with HIV, the “ability to inhibit HIV replication, previous study” value is “inactive”.
